Assay results taken from patent US20130316963A1, “INNATE DEFENCE REGULATORY PEPTIDE COMPOSITIONS FOR TREATMENT OF ARTHRITIS” (UNIVERSITY OF MANITOBA, priority 2010, published 2013).

What was measured:
Assay type in all cases: cell-based
[1] = tested on: JNK; assay: JNK activity assay (immunoprecipitation, c-Jun Ser73 phosphorylation immunoblot) in human FLS cells; conditions: IL-1β 10 ng/ml 15 min; IDR-1002 100 μg/ml 45 min prior to or at time of stimulation; FIG. 8
Procedure: Human FLS cells (5×10^4/ml) were seeded in a total volume of 20 ml per 75 cm^2 tissue culture flask in complete DMEM media containing 10% FBS for each condition. The cells were allowed to adhere overnight. Following day the media was changed to 10 ml complete DMEM containing 1% FBS. The cells were either un-stimulated or treated with IL-1β (10 ng/ml) in the presence or absence of IDR-1002 (100 μg/ml) for 15 min. IL-1β is known to induce JNK activation, and also p38 MAPK activity, after 15 min in FLS cells. Peptide IDR-1002 (100 μg/ml) was added either 45 min prior to, or at the time of stimulation with IL-1β. Total protein concentration was evaluated for each cell lysate employing micro BCA (Thermo Scientific). Kinase activities specific to JNK and to p38-MAPK were monitored employing the JNK activity assay kit and the p38 MAPK assay kit (Abcam Inc., Calif., USA) following the manufacturer's instructions. For JNK, 50 μg of total protein per cell lysate was used for immunoprecipitation employing a JNK-specific antibody. The eluate was treated with c-Jun substrate and ATP mixture. Subsequent phosporylation of c-Jun was evaluated by probing immunoblots with anti-phospho-c-Jun (Ser73) specific antibody. […] Subsequent phosporylation of ATF-2 was evaluated by probing immunoblots with a phospho-ATF-2 (Thr76) specific antibody. […]

[2] = tested on: NF-κB; assay: Secreted NF-κB luciferase reporter assay in rabbit synoviocyte HIG-82 cells; conditions: IL-1β 10 ng/ml, IDR-1002 100 μg/ml, 6 hr, FIG. 3
Procedure: Rabbit synoviocyte HIG-82 cells were transiently transfected with pNFκB-MetLuc2-Reporter Vector (Clontech laboratories Inc., Mountain View, Calif., USA) or the provided control vector as per the manufacturer's instructions. Various stimulants were added to the transfected cells in culture media containing 1% (v/v) FBS. The cells were stimulated with recombinant human IL-1β in the presence and absence of IDR-1002 for 6 hr. The peptide was added either 45 min prior to, or at the time of cytokine stimulation. The activation of NF-κB was monitored by employing the Ready-To-Glow Secreted NF-κB Luciferase Reporter Assay (Clontech) as per the manufacturer's instructions.
Transcription factor NF-κB is central to the destructive effects associated with the escalation and sustenance of inflammatory responses pivotal in chronic inflammatory diseases including arthritis. Quantitative proteomics evaluation using iTRAQ® labelling pointed to the possibility that the peptide IDR-1002 altered IL-1β-induced NF-κB activation. Therefore, this study further evaluated the impact of IDR-1002 on IL-1β-induced direct activation of NF-κB in synovial fibroblasts. […] The activation of NF-κB was monitored by employing the Ready-To-Glow Secreted NF-κB Luciferase Reporter Assay (Clontech) as per the manufacturer's instructions.

[3] = tested on: human FLS cells; assay: Cytokine and chemokine production in human FLS cell supernatants (BD Cytometric Bead Array)
Procedure: Tissue culture supernatants were harvested after stimulation of human FLS cells with various cytokines (as indicated) with and without IDR peptides after 24 hr. The supernatants were centrifuged at 1500×g for 7 min to obtain cell-free samples. The samples were aliquoted and stored at −20° C. until further use. Production of MMP-3 in the tissue culture supernatants was monitored using Quantikine® human MMP-3 (total) ELISA kit (Quantikine is a registered trademark of R&D Systems, Inc. Minneapolis, Minn., USA) as per the manufacturer's instructions. Production of pro-inflammatory cytokines IL-1β, IL-6, IL-10, TNF, IL-12p70 and chemokines IL-8, RANTES, MIG, MCP-1, IP-10 in the tissue culture supernatants was determined using preconfigured multiplex BD Cytometric Bead Array (CBA) human inflammation and chemokine kits respectively, employing the FACS Calibur flow cytometer (BD Biosciences, Mississauga, ON, Canada) as per the manufacture's instructions. The concentration of the cytokines or chemokines in the tissue culture supernatants was evaluated by establishing a standard curve with serial dilutions of the recombinant human cytokines or chemokines as required.
To evaluate whether IDR-1002 alone could induce inflammatory responses, human FLS cells were stimulated with IDR-1002 (100 μg/ml) for 24 hr. BD Cytometric Bead Array (CBA) preconfigured human inflammation (IL-8, IL-1β, IL-6, IL-10, TNF, IL-12p70) kit was used to evaluate protein secretion of the various analytes in the tissue culture supernatants employing FACS Calibur flow cytometer.
IL-1β-induced protein profiles (proteome) in the presence and absence of IDR-1002 were evaluated using quantitative proteomics iTRAQ® tools employing different isobaric tags. Human FLS cells were treated with IDR-1002 (100 μg/ml) for 45 min prior to IL-1β (10 ng/ml) stimulation for 24 hr. Tissue culture supernatants were monitored for protein production of MMP-3 and chemokines IL-8 and MCP-1 production, in order to evaluate the validity of the assay before processing the cell lysates for quantitative proteomic evaluation. MMP-3 production was monitored in the tissue culture supernatants by ELISA, and chemokines IL-8 and MCP-1 production were evaluated by BD preconfigured human chemokine Cytometric Bead Array.

## VQRWLIVWRIRK (IDR-1002 peptide)
[1]
  IL-1β-induced JNK activity and phosphorylation of c-Jun (Ser73): abrogated
[2]
  suppression of IL-1β-induced activation of NF-κB: greater than 70%
[3]; IDR-1002 100 μg/ml alone, 24 hr
  IL-10 and IL-12p70 in supernatants by flow cytometry: could not be detected
[3]; IDR-1002 100 μg/ml for 45 min prior to IL-1β 10 ng/ml, 24 hr, FIG. 2B
  suppression of IL-1β-induced chemokine MCP-1 production: > 60%
[3]; IDR-1002 100 μg/ml for 45 min prior to IL-1β 10 ng/ml, 24 hr, FIG. 2C
  suppression of IL-1β-induced chemokine IL-8 production: 20%
[3]; IDR-1002 100 μg/ml, 24 hr, vs un-stimulated control cells, data not shown
  release of pro-inflammatory cytokines TNF-α, IL-1β or IL6 by peptide alone: did not induce
[3]; IDR-1002 alone, human FLS
  chemokine production induced by peptide by itself in FLS: did not induce chemokine production by itself
